# Source: publication PMC4770715, “LIM kinase inhibitors disrupt mitotic microtubule organization and impair tumor cell proliferation” (Oncotarget, 2015)
# Assays:
# Experiment in all cases: biochemical
# Parameters in all cases: KINOMEscan active-site competition binding, percent of control (100 = no competition)
# Details in all cases: competition binding, percent control
# [1] = biological target: T1, ABL1(F317I)-phosphorylated (Homo sapiens, UniProt P00519, F317I)
# T1 construct: phosphorylated
# T1 sequence (P00519 whole entry F317I): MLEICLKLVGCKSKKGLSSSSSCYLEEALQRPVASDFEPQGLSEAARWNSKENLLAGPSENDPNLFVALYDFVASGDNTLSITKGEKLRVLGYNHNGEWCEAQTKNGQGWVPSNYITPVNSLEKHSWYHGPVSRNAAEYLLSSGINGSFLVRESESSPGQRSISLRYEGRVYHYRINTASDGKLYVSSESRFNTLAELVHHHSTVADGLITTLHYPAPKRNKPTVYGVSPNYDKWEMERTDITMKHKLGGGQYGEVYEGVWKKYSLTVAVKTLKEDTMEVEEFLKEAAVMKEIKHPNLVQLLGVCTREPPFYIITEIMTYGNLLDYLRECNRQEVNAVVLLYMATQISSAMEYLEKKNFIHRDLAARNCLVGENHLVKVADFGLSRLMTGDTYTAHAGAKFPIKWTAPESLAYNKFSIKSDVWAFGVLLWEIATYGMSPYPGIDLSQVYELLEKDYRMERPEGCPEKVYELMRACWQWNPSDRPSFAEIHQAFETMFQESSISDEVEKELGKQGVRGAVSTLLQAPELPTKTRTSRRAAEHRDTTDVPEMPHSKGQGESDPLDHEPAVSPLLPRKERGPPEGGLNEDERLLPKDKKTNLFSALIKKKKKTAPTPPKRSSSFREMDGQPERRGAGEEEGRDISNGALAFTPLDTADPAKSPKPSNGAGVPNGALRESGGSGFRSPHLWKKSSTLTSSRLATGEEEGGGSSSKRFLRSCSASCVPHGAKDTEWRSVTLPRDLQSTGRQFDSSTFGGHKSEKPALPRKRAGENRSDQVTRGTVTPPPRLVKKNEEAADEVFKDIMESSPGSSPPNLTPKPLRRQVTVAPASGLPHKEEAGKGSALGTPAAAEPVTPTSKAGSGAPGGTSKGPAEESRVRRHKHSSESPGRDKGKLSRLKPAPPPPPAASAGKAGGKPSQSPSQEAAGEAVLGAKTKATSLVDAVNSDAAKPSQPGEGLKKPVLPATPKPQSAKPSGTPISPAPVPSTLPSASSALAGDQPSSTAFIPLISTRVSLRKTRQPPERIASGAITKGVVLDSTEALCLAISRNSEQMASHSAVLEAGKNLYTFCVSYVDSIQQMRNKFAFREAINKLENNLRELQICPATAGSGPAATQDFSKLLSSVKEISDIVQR
# Text: (§1) Given the potential for the use of LIMK inhibitors as cancer chemotherapeutics, a high-throughput drug discovery and medicinal chemistry program was undertaken. Details of the screening methodology and description of initial hit matter were described in [38]. […] Details of their chemical synthesis are described in Charles et al.. […] These and additional physiochemical parameters are in Supplemental Table 5. […] Kinases inhibited >25% to 50% have yellow circles, 51% to 75% have orange circles, and >76% have red circles. In each case, the size of the circle is proportional to percentage inhibition. LIMK1 and LIMK2 positions are indicated in blue. Illustration reproduced courtesy of Cell Signaling Technology, Inc. (www.cellsignal.com). B. CRT0105950 structure and kinome selectivity mapping as described above. C.
# [2] = biological target: FGFR2 (Homo sapiens, UniProt P21802)
# Text: as §1
# [3] = biological target: T2, PIK4CB (Homo sapiens, UniProt Q9UBF8)
# T2 construct: gene PI4KB
# T2 sequence (Q9UBF8 whole entry): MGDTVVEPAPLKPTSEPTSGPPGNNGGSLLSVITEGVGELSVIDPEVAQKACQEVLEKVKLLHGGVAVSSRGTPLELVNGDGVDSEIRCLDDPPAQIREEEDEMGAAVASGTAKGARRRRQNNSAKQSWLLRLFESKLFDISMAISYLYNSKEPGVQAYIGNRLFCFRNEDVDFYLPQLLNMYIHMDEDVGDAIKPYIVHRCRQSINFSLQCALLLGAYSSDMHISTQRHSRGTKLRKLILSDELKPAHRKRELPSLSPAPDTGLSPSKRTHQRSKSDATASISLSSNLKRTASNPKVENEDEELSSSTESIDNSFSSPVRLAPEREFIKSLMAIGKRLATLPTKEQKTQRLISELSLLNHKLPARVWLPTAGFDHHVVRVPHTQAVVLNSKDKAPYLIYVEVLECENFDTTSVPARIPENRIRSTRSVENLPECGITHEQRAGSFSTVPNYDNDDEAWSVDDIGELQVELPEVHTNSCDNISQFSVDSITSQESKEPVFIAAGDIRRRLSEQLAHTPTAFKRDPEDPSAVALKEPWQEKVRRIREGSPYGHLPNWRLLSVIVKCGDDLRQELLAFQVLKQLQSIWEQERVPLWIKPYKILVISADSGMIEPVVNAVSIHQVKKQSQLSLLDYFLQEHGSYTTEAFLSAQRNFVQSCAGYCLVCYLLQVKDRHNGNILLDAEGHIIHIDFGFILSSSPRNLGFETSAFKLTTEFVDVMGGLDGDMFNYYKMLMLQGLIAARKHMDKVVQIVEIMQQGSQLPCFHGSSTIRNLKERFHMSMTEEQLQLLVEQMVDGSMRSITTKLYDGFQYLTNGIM
# Text: as §1
# [4] = biological target: AURKA (Homo sapiens, UniProt O14965)
# Text: as §1
# [5] = biological target: TBK1 (Homo sapiens, UniProt Q9UHD2)
# Chain of TBK1 (Q9UHD2 whole entry): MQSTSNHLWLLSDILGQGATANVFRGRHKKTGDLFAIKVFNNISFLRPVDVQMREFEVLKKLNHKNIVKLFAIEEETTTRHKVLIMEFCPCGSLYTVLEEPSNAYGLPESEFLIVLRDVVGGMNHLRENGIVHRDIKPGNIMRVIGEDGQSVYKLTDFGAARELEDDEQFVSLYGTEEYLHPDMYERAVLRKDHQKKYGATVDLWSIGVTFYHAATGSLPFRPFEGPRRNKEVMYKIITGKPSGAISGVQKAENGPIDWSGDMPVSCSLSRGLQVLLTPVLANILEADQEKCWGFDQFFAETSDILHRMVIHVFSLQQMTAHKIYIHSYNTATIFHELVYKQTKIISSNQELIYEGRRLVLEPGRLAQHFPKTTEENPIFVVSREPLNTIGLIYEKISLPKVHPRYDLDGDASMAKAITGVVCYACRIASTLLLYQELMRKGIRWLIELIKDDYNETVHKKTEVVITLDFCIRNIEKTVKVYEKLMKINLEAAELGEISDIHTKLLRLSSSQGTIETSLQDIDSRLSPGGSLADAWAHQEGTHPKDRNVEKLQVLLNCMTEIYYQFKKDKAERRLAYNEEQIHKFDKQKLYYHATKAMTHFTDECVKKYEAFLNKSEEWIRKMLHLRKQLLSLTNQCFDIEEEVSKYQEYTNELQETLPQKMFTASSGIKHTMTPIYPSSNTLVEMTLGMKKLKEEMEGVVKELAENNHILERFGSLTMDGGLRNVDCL
# Text: as §1
# [6] = biological target: T3, LOK (Homo sapiens, UniProt O94804)
# T3 construct: gene STK10
# T3 sequence (O94804 whole entry): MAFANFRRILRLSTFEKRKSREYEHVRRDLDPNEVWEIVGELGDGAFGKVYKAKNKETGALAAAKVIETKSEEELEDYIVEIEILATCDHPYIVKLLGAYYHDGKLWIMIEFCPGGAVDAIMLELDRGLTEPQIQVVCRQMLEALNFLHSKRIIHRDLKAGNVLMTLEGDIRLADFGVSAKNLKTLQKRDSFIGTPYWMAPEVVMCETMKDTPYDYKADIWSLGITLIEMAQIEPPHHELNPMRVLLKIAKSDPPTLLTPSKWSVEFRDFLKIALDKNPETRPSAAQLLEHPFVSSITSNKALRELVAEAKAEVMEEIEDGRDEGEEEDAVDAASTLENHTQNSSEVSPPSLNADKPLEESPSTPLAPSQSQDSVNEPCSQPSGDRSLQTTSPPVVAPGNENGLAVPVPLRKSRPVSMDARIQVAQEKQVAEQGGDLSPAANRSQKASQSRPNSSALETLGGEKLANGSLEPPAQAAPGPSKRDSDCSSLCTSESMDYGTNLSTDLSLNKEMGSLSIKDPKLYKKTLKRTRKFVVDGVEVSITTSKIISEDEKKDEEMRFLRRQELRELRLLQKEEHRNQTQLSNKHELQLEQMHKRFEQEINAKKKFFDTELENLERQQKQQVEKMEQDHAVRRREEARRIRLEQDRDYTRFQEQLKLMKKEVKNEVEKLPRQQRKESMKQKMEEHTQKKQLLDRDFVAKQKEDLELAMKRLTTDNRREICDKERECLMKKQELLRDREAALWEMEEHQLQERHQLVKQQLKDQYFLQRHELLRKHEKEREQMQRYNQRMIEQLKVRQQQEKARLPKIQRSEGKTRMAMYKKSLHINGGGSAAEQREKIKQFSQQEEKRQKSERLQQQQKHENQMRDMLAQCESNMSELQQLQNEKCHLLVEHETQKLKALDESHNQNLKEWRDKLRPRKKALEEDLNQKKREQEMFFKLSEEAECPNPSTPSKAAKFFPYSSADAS
# Text: as §1
# [7] = biological target: EPHB3 (Homo sapiens, UniProt P54753)
# Text: as §1
# [8] = biological target: MYLK4 (Homo sapiens, UniProt Q86YV6)
# Text: as §1
# [9] = biological target: T4, ASK2 (Homo sapiens, UniProt O95382)
# T4 construct: gene MAP3K6
# Text: as §1
# [10] = biological target: PIK3CA(M1043I) (Homo sapiens, UniProt P42336, M1043I)
# Chain of PIK3CA(M1043I) (P42336 whole entry M1043I): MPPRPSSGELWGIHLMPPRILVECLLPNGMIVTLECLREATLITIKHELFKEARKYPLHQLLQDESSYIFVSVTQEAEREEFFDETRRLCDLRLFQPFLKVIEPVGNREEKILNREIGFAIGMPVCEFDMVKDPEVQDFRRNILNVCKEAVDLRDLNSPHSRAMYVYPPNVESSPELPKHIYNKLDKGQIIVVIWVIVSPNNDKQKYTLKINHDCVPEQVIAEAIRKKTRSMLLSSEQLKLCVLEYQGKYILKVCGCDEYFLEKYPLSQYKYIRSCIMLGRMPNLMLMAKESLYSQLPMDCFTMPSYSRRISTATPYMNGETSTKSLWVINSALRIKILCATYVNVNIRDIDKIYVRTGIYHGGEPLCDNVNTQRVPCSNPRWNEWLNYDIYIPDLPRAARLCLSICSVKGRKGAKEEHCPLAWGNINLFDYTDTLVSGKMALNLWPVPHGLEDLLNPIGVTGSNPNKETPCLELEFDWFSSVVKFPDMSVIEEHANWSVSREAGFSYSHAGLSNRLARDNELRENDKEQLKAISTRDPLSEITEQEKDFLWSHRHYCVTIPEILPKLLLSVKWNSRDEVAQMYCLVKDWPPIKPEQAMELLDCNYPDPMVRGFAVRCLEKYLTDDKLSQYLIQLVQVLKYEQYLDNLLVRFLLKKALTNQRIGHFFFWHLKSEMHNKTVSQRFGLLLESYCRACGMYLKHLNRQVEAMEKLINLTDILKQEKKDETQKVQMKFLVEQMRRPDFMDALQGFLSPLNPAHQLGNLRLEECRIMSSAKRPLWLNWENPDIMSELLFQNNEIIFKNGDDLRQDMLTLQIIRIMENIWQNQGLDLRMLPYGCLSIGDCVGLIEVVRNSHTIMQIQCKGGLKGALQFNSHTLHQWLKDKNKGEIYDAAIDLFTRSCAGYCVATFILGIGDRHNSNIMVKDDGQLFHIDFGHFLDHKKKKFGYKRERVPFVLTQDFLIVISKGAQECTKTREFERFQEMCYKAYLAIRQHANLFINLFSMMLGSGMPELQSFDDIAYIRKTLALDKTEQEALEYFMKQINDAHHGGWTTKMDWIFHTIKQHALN
# Text: as §1
# [11] = biological target: EGFR(L861Q) (Homo sapiens, UniProt P00533, L861Q)
# Text: as §1
# [12] = biological target: MYLK (Homo sapiens, UniProt Q15746)
# Text: as §1
# [13] = biological target: AAK1 (Homo sapiens, UniProt Q2M2I8)
# Text: as §1
# [14] = biological target: T5, ERK1 (Homo sapiens, UniProt P27361)
# T5 construct: gene MAPK3
# T5 sequence (P27361 whole entry): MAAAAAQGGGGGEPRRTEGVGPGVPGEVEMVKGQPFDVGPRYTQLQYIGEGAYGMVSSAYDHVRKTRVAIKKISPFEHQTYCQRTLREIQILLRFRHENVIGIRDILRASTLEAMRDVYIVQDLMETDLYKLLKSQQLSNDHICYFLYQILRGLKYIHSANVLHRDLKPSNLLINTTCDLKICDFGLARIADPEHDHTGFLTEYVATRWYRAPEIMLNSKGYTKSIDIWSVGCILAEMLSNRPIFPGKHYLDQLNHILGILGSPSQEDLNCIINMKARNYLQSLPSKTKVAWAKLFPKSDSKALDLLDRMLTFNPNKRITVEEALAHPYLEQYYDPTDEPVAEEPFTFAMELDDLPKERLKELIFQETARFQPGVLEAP
# Text: as §1
# [15] = biological target: FLT3(ITD) (Homo sapiens, UniProt P36888, ITD)
# Text: as §1
# [16] = biological target: HIPK2 (Homo sapiens, UniProt Q9H2X6)
# Text: as §1
# [17] = biological target: IRAK1 (Homo sapiens, UniProt P51617)
# Text: as §1
# [18] = biological target: FLT4 (Homo sapiens, UniProt P35916)
# Text: as §1
# [19] = biological target: SRC (Homo sapiens, UniProt P12931)
# Text: as §1
# [20] = biological target: CDKL3 (Homo sapiens, UniProt Q8IVW4)
# Text: as §1
# [21] = biological target: GRK7 (Homo sapiens, UniProt Q8WTQ7)
# Text: as §1
# [22] = biological target: T6, p38-gamma (Homo sapiens, UniProt P53778)
# T6 construct: gene MAPK12
# Text: as §1
# [23] = biological target: KIT(A829P) (Homo sapiens, UniProt P10721, A829P)
# Text: as §1
structure (smiles),measurement,setting,value
"COc1ccc(-c2cnccc2-c2cnc(NC(=O)C(C)C)s2)c(C(F)(F)F)c1 [CRT0105446, N-{5-[3-(4-Methoxy-2-trifluoromethyl-phenyl)-pyridin-4-yl]-hiazol-2-yl}-isobutyramide]",remaining binding at 10 µM,[1],76%
same,remaining binding at 10 µM,[2],100%
same,remaining binding at 10 µM,[3],80%
same,remaining binding at 10 µM,[4],100%
same,remaining binding at 10 µM,[5],82%
same,remaining binding at 10 µM,[6],100%
same,remaining binding at 10 µM,[7],83%
same,remaining binding at 10 µM,[8],71%
same,remaining binding at 10 µM,[9],100%
same,remaining binding at 10 µM,[10],100%
same,remaining binding at 10 µM,[11],100%
same,remaining binding at 10 µM,[12],100%
same,remaining binding at 10 µM,[13],78%
same,remaining binding at 10 µM,[14],100%
same,remaining binding at 10 µM,[15],79%
same,remaining binding at 10 µM,[16],92%
same,remaining binding at 10 µM,[17],94%
same,remaining binding at 10 µM,[18],61%
same,remaining binding at 10 µM,[19],100%
same,remaining binding at 10 µM,[20],26%
same,remaining binding at 10 µM,[21],58%
same,remaining binding at 10 µM,[22],100%
same,remaining binding at 10 µM,[23],100%
"Cc1ccc(-c2cnccc2-c2cnc(Nc3ccc(O)cc3)s2)c(Cl)c1 [CRT0105950, 4-{5-[3-(2-Chloro-4-methyl-phenyl)-pyridin-4-yl]-thiazol-2-ylamino}-phenol]",remaining binding at 10 µM,[1],87%
same,remaining binding at 10 µM,[2],17%
same,remaining binding at 10 µM,[3],2.9%
same,remaining binding at 10 µM,[4],18%
same,remaining binding at 10 µM,[5],52%
same,remaining binding at 10 µM,[6],51%
same,remaining binding at 10 µM,[7],96%
same,remaining binding at 10 µM,[8],9.4%
same,remaining binding at 10 µM,[9],100%
same,remaining binding at 10 µM,[10],100%
same,remaining binding at 10 µM,[11],65%
same,remaining binding at 10 µM,[12],28%
same,remaining binding at 10 µM,[13],51%
same,remaining binding at 10 µM,[14],96%
same,remaining binding at 10 µM,[15],4.4%
same,remaining binding at 10 µM,[16],55%
same,remaining binding at 10 µM,[17],56%
same,remaining binding at 10 µM,[18],26%
same,remaining binding at 10 µM,[19],82%
same,remaining binding at 10 µM,[20],23%
same,remaining binding at 10 µM,[21],16%
same,remaining binding at 10 µM,[22],100%
same,remaining binding at 10 µM,[23],35%
